Measurements: ChEMBL document CHEMBL5729568, “Ras inhibitors” (2023)

Legend:
[1] = (§1) Biochemical Assay: A variety of Ras proteins may be inhibited by compounds of the present invention (e.g., K-Ras, N-Ras, H-Ras, and mutants thereof at positions 12, 13 and 61, such as G12C, G12D, G12V, G12S, G13C, G13D, and Q61L, and others described herein). The purpose of this biochemical assay is to measure the ability of test compounds to covalently label nucleotide-loaded K-Ras isoforms. […] The sample is incubated at 25? C. for a time period of up to 24 hours prior to quenching by the addition of 10 uL of 5% Formic Acid. Quenched samples are centrifuged at 15000 rpm for 15 minutes in a benchtop centrifuge before injecting a 10 uL aliquot onto a reverse phase C4 column and eluting into the mass spectrometer with an increasing acetonitrile gradient in the mobile phase. Analysis of raw data may be carried out using Waters MassLynx MS software, with % bound calculated from the deconvoluted protein peaks for labeled and unlabeled K-Ras.
[2] = as §1; remark: listed apart in the source
[3] = as §1; remark: listed apart in the source
[4] = as §1; remark: listed apart in the source
[5] = as §1; remark: listed apart in the source
[6] = as §1; remark: listed apart in the source
[7] = as §1; remark: listed apart in the source

| SMILES | IC50 [1] | IC50 [2] | IC50 [3] | IC50 [4] | IC50 [5] | IC50 [6] | IC50 [7] |
| --- | --- | --- | --- | --- | --- | --- | --- |
| CCn1c(-c2cccnc2C(C)OC)c2c3cc(ccc31)N1CCC[C@@H](C[C@H](NC(=O)[C@@H](COC3CN(C(=O)C#CC(C)(C)N(C)C)C3)C(C)C)C(=O)N3CCC[C@H](N3)C(=O)OCC(C)(C)C2)C1 (stereo not given in full) | > 10 µM | > 10 µM | > 10 µM | > 10 µM | > 10 µM | in the range around 0.055 µM | > 10 µM |
| C=CC(=O)N1CCO[C@H]2CN(C(=O)N(C)[C@H](C(=O)N[C@H]3Cc4cc(C(F)F)cc(n4)-c4ccc5c(c4)c(c(-c4cccnc4C(C)OC)n5CC(F)(F)F)CC(C)(C)COC(=O)[C@@H]4CCCN(N4)C3=O)C(C)C)C[C@H]21 (stereo not given in full) | in the range around 5.5 µM | in the range around 0.055 µM | in the range around 5.5 µM | in the range around 5.5 µM | in the range around 0.55 µM | in the range around 0.55 µM | in the range around 5.5 µM |
| COC(C)c1ncccc1-c1c2c3cc(ccc3n1CC(F)(F)F)-c1csc(n1)C[C@H](NC(=O)[C@@H](COC1CN(C(=O)C#CC(C)(C)N(C)C)C1)C(C)C)C(=O)N1CCC[C@H](N1)C(=O)OCC(C)(C)C2 (stereo not given in full) | in the range around 5.5 µM | in the range around 5.5 µM | in the range around 5.5 µM | > 10 µM | in the range around 5.5 µM | < 0.01 µM | in the range around 5.5 µM |
| C=CC(=O)N1CC(OC[C@H](C(=O)N[C@H]2Cc3cc(F)cc(c3)-c3ccc4c(c3)c(c(-c3cccnc3C(C)OC)n4CC(F)(F)F)CC(C)(C)COC(=O)[C@@H]3CCCN(N3)C2=O)C(C)C)C1 (stereo not given in full) | in the range around 5.5 µM | in the range around 0.55 µM | in the range around 5.5 µM | in the range around 5.5 µM | in the range around 0.55 µM | in the range around 0.55 µM | in the range around 5.5 µM |
| C=CC(=O)Nc1cnc(OC[C@H](C(=O)N[C@H]2Cc3cccc(c3)-c3ccc4c(c3)c(c(-c3cccnc3C(C)OC)n4CC)CC(C)(C)COC(=O)[C@@H]3CCCN(N3)C2=O)C(C)C)n1C (stereo not given in full) | in the range around 5.5 µM | in the range around 0.055 µM | in the range around 5.5 µM | in the range around 5.5 µM | in the range around 0.55 µM | < 0.01 µM | in the range around 5.5 µM |
| C=CC(=O)N1CC[C@H](C(=O)N(C)C(C(=O)N[C@H]2C[C@H]3CN(CCO3)c3ccc4c(c3)c(c(-c3cccnc3C(C)OC)n4CC)CC(C)(C)COC(=O)[C@@H]3CCCN(N3)C2=O)C(C)C)C1 (stereo not given in full) | in the range around 5.5 µM | in the range around 5.5 µM | in the range around 5.5 µM | > 10 µM | > 10 µM | in the range around 0.55 µM | > 10 µM |
| C=CC(=O)C1CC[C@H](C(=O)C(C)[C@H](C(=O)N[C@H]2Cc3nc(cs3)-c3ccc4c(c3)c(c(-c3cccnc3C(C)OC)n4CC)CC(C)(C)COC(=O)[C@@H]3CCCN(N3)C2=O)C(C)C)C1 (stereo not given in full) | in the range around 5.5 µM | in the range around 5.5 µM | > 10 µM | > 10 µM | in the range around 5.5 µM | in the range around 0.55 µM | in the range around 5.5 µM |
| COC(C)c1ncccc1-c1c2c3cc(ccc3n1CC(F)(F)F)-c1cc(cc(C(F)F)c1)C[C@H](NC(=O)[C@@H](COC1CN(C(=O)C#CC(C)(C)N(C)C)C1)C(C)C)C(=O)N1CCC[C@H](N1)C(=O)OCC(C)(C)C2 (stereo not given in full) | > 10 µM | > 10 µM | > 10 µM | > 10 µM | > 10 µM | in the range around 0.55 µM | > 10 µM |
| CCn1c(-c2cccnc2C(C)OC)c2c3cc(ccc31)N1CCO[C@@H](C[C@H](NC(=O)[C@H](C(C)C)N(C)C(=O)C3(F)CCN(C(=O)C#CC(C)(C)N(C)C)CC3)C(=O)N3CCC[C@H](N3)C(=O)OCC(C)(C)C2)C1 (stereo not given in full) | in the range around 5.5 µM | in the range around 0.55 µM | in the range around 5.5 µM | in the range around 5.5 µM | in the range around 5.5 µM | < 0.01 µM | in the range around 5.5 µM |
| C=CC(=O)N1CCO[C@H]2CN(C(=O)N(C)[C@H](C(=O)N[C@H]3C[C@H]4CN(CCO4)c4ccc5c(c4)c(c(-c4cccnc4C(C)OC)n5CC)CC(C)(C)COC(=O)[C@@H]4CCCN(N4)C3=O)C(C)C)C[C@H]21 (stereo not given in full) | in the range around 5.5 µM | in the range around 0.55 µM | in the range around 5.5 µM | in the range around 5.5 µM | in the range around 5.5 µM | in the range around 0.55 µM | > 10 µM and in the range around 5.5 µM |
